Results published in patent EP1072673A2, “Perfume compositions” (THE PROCTER & GAMBLE COMPANY, priority 1999, dated 2001).

Assay: Bleach stability index (BSI) test: % AvO loss of perfumed bleach product in accelerated aging, by iodometric titration
Settings: perfume ingredient at 0.2% via AE3S in PAP finished product, pH 3.8; 2 weeks at 40°C; BSI of at least 80% = not more than 20% AvO loss
Description: For this test, the pure perfume chemicals to be tested were diluted at 0.2% via a solubiliser, namely C10-C18 sodium alkyl sulfate condensed with an average of three moles of ethylene oxide (AE3S), then incorporated in a finished product and then subjected to the accelerated aging test. The accelerated aging test is set up as follows: 15 to 20g of each of the finished product incorporating the perfume ingredient was taken and placed in an oven for 2 weeks at 40°C. The aged samples were compared versus freshly made perfumed product (The reference) by measuring the AvO before storage from the reference and after storage from the aged product and expressing the difference in AvO as % loss.
The loss of available oxygen (AvO) of a bleach-containing composition over time can be measured with the iodometric titration method in which the bleach is reduced by excess potassium iodide and the iodine formed is determined by titration with sodium thiosulphate.

Molecule	bleach stability index (BSI)
C=CC(C)(CCC=C(C)C)OC(C)=O (stereo not shown) [linalyl acetate]	at least 80%
CCCCCCC(C=O)=Cc1ccccc1 [hexyl cinnamic aldehyde]	at least 80%
OC/C=C/c1ccccc1 [cinnamic alcohol]	at least 80%
CCC(=CCC1CC=C(C)C1(C)C)CO (stereo not shown) [Sanjinol, 2-Ethyl-4-(2,2,3-trimethyl-3-cyclopenten-1-yl)-2-buten-1-ol]	at least 80%
CC1(C)CCCC2=C1CC(C=O)CC2 (stereo not shown) [melafleur]	at least 80%
CCCC(C)C=Nc1ccccc1C(=O)OC (stereo not shown) [mevantraal (q), Methyl 2-((-2-methylpentylidene)amino)-1-benzenecarboxylate]	at least 80%
CCC=C(C)C(O)CCCCC (stereo not shown) [undecavertol, 4-Methyl-3-decen-5-ol]	at least 80%
CCC/C=C/CO [trans-2-hexenol]	at least 80%
CC1=CCC(CC#N)C1(C)C (stereo not shown) [cantryl]	at least 80%
CC(=O)/C=C/C1C(C)=CCCC1(C)C (stereo not drawn) [ionone alpha]	at least 80%
C=CCCCCCCCCO [rosalva, 9-Decen-1-ol]	at least 80%
O=C1CCCC=CCCCCCCCCCC1 [ambretone]	at least 80%
CCC/C=C/C=O [trans-2-hexenal]	at least 80%
CC(=O)OCCC(C)CCC=C(C)C (stereo not shown) [citronellyl acetate]	at least 80%
CC(C)=CCCC(C)CC=O (stereo not shown) [Citronellal, 3,7-Dimethyl-6-octen-1-al]	at least 80%
C=CC(O)CCCCC (stereo not shown) [amyl vinyl carbinol]	at least 80%
CC(C)(O)CCCC1=CCC(C=O)CC1 (stereo not shown) [lyral]	at least 80%
C=CCCCCCCCC=CCC#N [3,12-tridecadiene nitrile]	at least 80%
CC(C)CCCC1=CCC(C)(C=O)CC1 (stereo not shown) [1-Methyl-4-(4-methylpentyl)-3-cyclohexenecarbaldehyde]	at least 80%
CC(C)C=CC(=O)CC(C)C [isotagetone 50, 2,7-Dimethyloct-5-en-4-one]	at least 80%
COC(=O)c1ccccc1N=CC1CCC(C)=CC1C (stereo not shown) [ligantraal, Methyl 2-((-1-(2,4-dimethyl-3-cyclohexenyl)methylidene)amino)-1-benzenecarboxylate]	at least 80%
C=CC(C)CCCC(C)(C)O (stereo not shown) [Dihydro myrcenol, 2,6-dimethyl-7-octen-2-ol]	at least 80%
CC=CC(=O)OC1CCCC1C1CCCC1 (stereo not shown) [2-cyclopentyl-cyclopentyl 2-butenoate]	at least 80%
C=CCOC(=O)COCCC(C)C [allyl amyl glycolate]	at least 80%

Molecule	bleach stability index (BSI)
CC1=CCC(CCC(C)C(C)O)C1(C)C (stereo not shown) [Sandalore, 5-(2,2,3-Trimethyl-3-cyclopentenyl)-3-methylpentan-2-ol]	at least 80%
CC=C1CC2CC1C1CCCOC21 (stereo not shown) [5,8-Methano-2H-1-benzopyran, 6-ethylideneoctahydro-]	at least 80%
CC=CC(=O)OCCCCCC [Hexyl crotonate, hexyl 2-butenoate]	at least 80%
C=CC(C)(C#N)Cc1ccccc1 (stereo not shown) [2-Benzyl-2-methyl-3-butenenitril]	at least 80%
CC1=CC(C)C(CO)CC1 (stereo not shown) [Floralol, dimethyl cyclohexene methanol]	at least 80%
O=c1ccc2ccccc2o1 [coumarin, 1,2-benzopyrone]	at least 80%
CC(=O)OCC=C(C)C [Prenyl acetate, 2-methylbuten-2-ol-4-acetate]	at least 80%
CC(=O)/C=C/C1=C(C)CCCC1(C)C [ionone beta]	at least 80%
CC(C)=CCOC(=O)c1ccccc1O [prenyl salicylate]	at least 80%
CC(C)=CCCC(C)CCO (stereo not shown) [citronellol, 3,7-dimethyl-6-octen-1-ol]	at least 80%
CC(CO)CC(C)c1ccccc1 (stereo not shown) [2-Methyl-4-phenyl-1-pentanol]	at least 80%
OCC=Cc1ccccc1 [3-Phenyl-2-propen-1-ol]	at least 80%
CC(C)=CCCC(C)=CC#N [3,7-dimethyl-2,6-octadienenitrile]	at least 80%
CCOC(=O)C1=C(C)C=CCC1(C)C [Ethyl safranate, ethyl 2,6,6-trimethyl-1,3-cyclohexdiene-1-carboxylate]	at least 80%
CC=CC(=O)C1=C(C)CCCC1(C)C [2-Buten-1-one, 1-(2,6,6-trimethyl-1-cyclohexen-1-yl)-]	at least 80%
C/C=C(/C)C(=O)OCC(C)C [isobutyl angelate]	at least 80%
CC=CC(=O)OC(C)CC(C)C (stereo not shown) [Frutinat.exp, 4-methyl-pentan-2-ol 2-butenoate]	at least 80%
C=CC(C)(O)CCC=C(C)C (stereo not shown) [Linalool, 3,7-Dimethyl-1,6-octadien-3-ol]	at least 80%
CC=CC(=O)C1C(C)=CCCC1(C)C (stereo not drawn) [alpha-damascone, 2-Buten-1-one, 1-(2,6,6-trimethyl-2-cyclohexen-1-yl)-]	at least 80%
C=C(C=O)C(C)CCC=C(C)C (stereo not shown) [bergamal]	at least 80%
CCCCCCC=CC(=O)OC [Beauvertate, methyl-2-nonenoate]	at least 80%
C=CC(=C)CCCC(C)(C)OC(C)=O [Myrcenyl acetate crude, 3-methylene-7-methyl-1-octen-7-yl acetate]	at least 80%
2,5,10-Trimethyl-2,5,9-cyclododecatrien-1-yl methyl ketone & isomers [trimofix o]	at least 80%

Assay: not given
Settings: pH 3.8

Molecule	bleach stability index (BSI)
CCC(=O)OC1CC2CC1C1CC=CC21 (stereo not shown) [Frutene, tricyclo decenyl propionate]	at least 80%
C=CCOC(=O)COCCCCC [glycolic acid, 2-pentyloxy:allyl ester]	at least 80%
